Here are results for ten compounds from PubChem BioAssay (NCI).

Some test systems named below: SK-MEL-5 melanoma; CAKI-1 renal; COLO 205 colon; HOP-92 NSCLC; A549 NSCLC; RPMI-8226 leukemia; OVCAR-4 ovarian; SK-OV-3 ovarian; PC-3 prostate; HCC-2998 colon.
Common to all, as to assay: DTP human tumour cell line panel, 48 h

Values joined by “and” are separate entries in the source; they are usually repeats but may differ in a detail not shown here. Identical values can stand only once.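 48-hour exposure; five concentrations; linearly interpolated endpoints. GI50 = concentration required for 50% inhibition of growth. TGI is the concentration that stops growth completely.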

As to `Cc1nc2sccn2c1/C=C1/C(=O)Nc2ccccc21`, the GI50 – broadly, the concentration at which growth is held to half of that of the control – was 3.37 µM in the assay with SK-MEL-5 melanoma; 2.98 µM with CAKI-1 renal; 3110 nM in the assay with COLO 205 colon; 17900 nM in the assay on HOP-92 NSCLC; 7.65 µM in the assay on A549 NSCLC; 7.16 µM in the assay on RPMI-8226 leukemia. The GI50 was above 29600 nM with OVCAR-4 ovarian, 24 µM in the assay with SK-OV-3 ovarian, 12.3 µM in the assay on PC-3 prostate and 1130 nM in the assay with HCC-2998 colon. Also, the total growth inhibition concentration (TGI) (usually the concentration giving total growth inhibition) in the assay with SK-MEL-5 melanoma was above 62.9 µM; with CAKI-1 renal it was above 100 µM; in the assay with COLO 205 colon, above 45.9 µM; with HOP-92 NSCLC it was above 100 µM; in the assay with A549 NSCLC, above 100 µM; with RPMI-8226 leukemia, above 100 µM. In addition, the TGI with OVCAR-4 ovarian is above 100 µM; in the assay with SK-OV-3 ovarian it was above 93.3 µM; in the assay with PC-3 prostate, above 100 µM; in the assay on HCC-2998 colon, 27.2 µM.
Take `COc1cccc([C@H]2CC(=O)c3cc4c(cc3N2)OCO4)c1`: the 50% growth inhibitory concentration (GI50) in the assay with SK-MEL-5 melanoma is 0.0271 µM; in the assay on CAKI-1 renal, 0.151 µM; with COLO 205 colon, 36.7 nM; in the assay on A549 NSCLC, 0.125 µM; in the assay with RPMI-8226 leukemia, 0.0608 µM; in the assay with SK-OV-3 ovarian, 0.556 µM. Moreover, the GI50 is 0.0927 µM in the assay on PC-3 prostate and 28.3 nM with HCC-2998 colon. In addition, the TGI in the assay with SK-MEL-5 melanoma was 0.226 µM; with CAKI-1 renal, above 100 µM; in the assay on COLO 205 colon it was 1.22 µM; with HOP-92 NSCLC, above 100 µM; in the assay on A549 NSCLC, above 100 µM; with RPMI-8226 leukemia, 1.01 µM. For the same compound, the TGI in the assay on OVCAR-4 ovarian was above 100 µM; in the assay on SK-OV-3 ovarian it was above 100 µM; with PC-3 prostate it was above 100 µM; in the assay with HCC-2998 colon, 0.115 µM.
`COc1ccc(-c2[nH]ncc2-c2cc3c(c(OC)c2)OCC(=O)N3)cc1`: the GI50 with SK-MEL-5 melanoma is 0.595 µM; with CAKI-1 renal, 0.556 µM; in the assay on COLO 205 colon, 465 nM; with HOP-92 NSCLC, 1110 nM; in the assay on A549 NSCLC, 1.44 µM; in the assay on RPMI-8226 leukemia, 0.796 µM. Moreover, the GI50 was 2910 nM with OVCAR-4 ovarian, 0.715 µM in the assay on SK-OV-3 ovarian, 0.538 µM in the assay with PC-3 prostate and 1140 nM in the assay with HCC-2998 colon. In addition, the TGI in the assay with SK-MEL-5 melanoma was 12.8 µM; in the assay on CAKI-1 renal it was above 63.3 µM; in the assay on COLO 205 colon it was 12.8 µM; in the assay with HOP-92 NSCLC it was 99.7 µM; with A549 NSCLC, above 100 µM; in the assay on RPMI-8226 leukemia it was 18.9 µM. In addition, the TGI in the assay with OVCAR-4 ovarian was 77.9 µM; in the assay on SK-OV-3 ovarian, above 100 µM; in the assay on PC-3 prostate, above 100 µM; in the assay with HCC-2998 colon, 27 µM.
`CNC(=O)c1cc(COc2nnc(Nc3ccc(Cl)cc3)c3ccoc23)ccn1`: the GI50 is 7.66 µM and 7.85 µM in the assay on SK-MEL-5 melanoma; 3.46 µM and > 10 µM in the assay with CAKI-1 renal; 20600 nM and > 10000 nM in the assay with COLO 205 colon; 2900 nM and 3780 nM in the assay on HOP-92 NSCLC; 4.66 µM and > 10 µM in the assay on A549 NSCLC; 19.4 µM and > 10 µM with RPMI-8226 leukemia. The GI50 in the assay with OVCAR-4 ovarian is 2870 nM and 3160 nM; in the assay with SK-OV-3 ovarian it was 3.48 µM and 9.73 µM; in the assay with PC-3 prostate, 9.39 µM and > 10 µM; in the assay on HCC-2998 colon, 17000 nM and > 10000 nM. The total growth inhibition concentration (TGI) was above 47.1 µM in the assay with SK-MEL-5 melanoma; 19.7 µM and > 10 µM in the assay with CAKI-1 renal; above 79 µM in the assay on COLO 205 colon; 14.4 µM and > 10 µM in the assay on HOP-92 NSCLC; 20.1 µM and > 10 µM with A549 NSCLC; above 82.7 µM with RPMI-8226 leukemia. Besides, the TGI was 11.7 µM and > 10 µM in the assay on OVCAR-4 ovarian; 13.2 µM and > 10 µM in the assay with SK-OV-3 ovarian; above 57.7 µM with PC-3 prostate; 52.7 µM and > 10 µM in the assay on HCC-2998 colon.
Consider `CC/C(Cc1ccccc1)=C(\c1ccc(OCCN2CCCCCC2)cc1)c1ccc(OC(=O)NCc2ccccc2)cc1`, for which the GI50 in the assay with SK-MEL-5 melanoma was 1 µM; in the assay with CAKI-1 renal, 4.52 µM; in the assay with COLO 205 colon, 1010 nM; in the assay on HOP-92 NSCLC, 3000 nM; with A549 NSCLC, 2.48 µM; in the assay with RPMI-8226 leukemia, 1.16 µM. Also, the GI50 with OVCAR-4 ovarian was 1610 nM; in the assay with SK-OV-3 ovarian, 7.59 µM; in the assay on PC-3 prostate, 2.3 µM; with HCC-2998 colon it was 2010 nM. In addition, the total growth inhibition concentration (TGI) is 2 µM in the assay on SK-MEL-5 melanoma; 10.5 µM in the assay with CAKI-1 renal; 1.99 µM in the assay with COLO 205 colon; 9.93 µM in the assay on HOP-92 NSCLC; 8.64 µM in the assay on A549 NSCLC; 2.87 µM in the assay on RPMI-8226 leukemia. Further, the TGI in the assay on OVCAR-4 ovarian came out at 6.03 µM; in the assay with SK-OV-3 ovarian, 15.2 µM; in the assay with PC-3 prostate, 8.36 µM; with HCC-2998 colon it was 8.05 µM.
For `C=CC(=O)Nc1ccc(Nc2nccc(-c3ccc(N4CCCC4)c(C#N)c3)n2)cc1`, the GI50 with SK-MEL-5 melanoma was 17.9 µM; with CAKI-1 renal, 4.6 µM; with COLO 205 colon, above 25000 nM; in the assay on HOP-92 NSCLC it was above 25000 nM; with A549 NSCLC it was 11 µM; with RPMI-8226 leukemia, 10.1 µM. For the same compound, the GI50 with OVCAR-4 ovarian is 20100 nM; in the assay with SK-OV-3 ovarian, above 25 µM; with PC-3 prostate, 20.9 µM; in the assay with HCC-2998 colon, above 25000 nM. For the same compound, the TGI with SK-MEL-5 melanoma, with CAKI-1 renal, in the assay with COLO 205 colon, in the assay with HOP-92 NSCLC, in the assay with A549 NSCLC and in the assay on RPMI-8226 leukemia was above 25 µM each time. In addition, the TGI in the assay on OVCAR-4 ovarian, in the assay on SK-OV-3 ovarian, in the assay with PC-3 prostate and with HCC-2998 colon was above 25 µM in each case.
On to `CC(=O)N1CCN(C2=Nc3ccccc3CO2)C1=S`, for which the GI50 was 20.4 µM in the assay with SK-MEL-5 melanoma; above 100 µM with CAKI-1 renal; above 100000 nM with COLO 205 colon; 34000 nM in the assay with HOP-92 NSCLC; above 100 µM in the assay with A549 NSCLC; 41.4 µM in the assay on RPMI-8226 leukemia. For the same compound, the GI50 with OVCAR-4 ovarian was 65300 nM; with SK-OV-3 ovarian, above 100 µM; with PC-3 prostate it was 87.6 µM; in the assay on HCC-2998 colon, 26900 nM. Further, the TGI in the assay on SK-MEL-5 melanoma was 48.4 µM; in the assay with CAKI-1 renal, above 100 µM; in the assay with COLO 205 colon, above 100 µM; with HOP-92 NSCLC, above 100 µM; in the assay with A549 NSCLC it was above 100 µM; in the assay with RPMI-8226 leukemia, above 100 µM. Besides, the TGI is above 100 µM in the assay with OVCAR-4 ovarian, above 100 µM in the assay on SK-OV-3 ovarian, above 100 µM with PC-3 prostate and 97.2 µM with HCC-2998 colon.
For the compound `Cc1c2cnccc2c(C)c2c1c1cc(C3OCCCO3)ccc1n2C`, the 50% growth inhibitory concentration (GI50) in the assay on SK-MEL-5 melanoma was 0.379 µM; in the assay on CAKI-1 renal it was 0.314 µM; in the assay on COLO 205 colon, 357 nM; in the assay on HOP-92 NSCLC, 281 nM; in the assay with A549 NSCLC, 0.461 µM; in the assay with RPMI-8226 leukemia, 0.282 µM. In addition, the GI50 in the assay with OVCAR-4 ovarian is 264 nM; in the assay with SK-OV-3 ovarian, 0.325 µM; in the assay on PC-3 prostate, 0.402 µM; with HCC-2998 colon it was 659 nM. The concentration for total growth inhibition (TGI) was 1.44 µM in the assay with SK-MEL-5 melanoma; 3.45 µM in the assay with CAKI-1 renal; 1.75 µM with COLO 205 colon; 1.66 µM in the assay on HOP-92 NSCLC; 2.5 µM in the assay with A549 NSCLC; 1.28 µM with RPMI-8226 leukemia. Moreover, the TGI in the assay with OVCAR-4 ovarian worked out at 1.12 µM; in the assay on SK-OV-3 ovarian, 1.76 µM; with PC-3 prostate it was 2.24 µM; in the assay on HCC-2998 colon it was 2.94 µM.
As to `COc1ccc(C#Cc2ccccc2C#CCCCCO)cc1`, the GI50 was 25.2 µM with SK-MEL-5 melanoma; 22.3 µM in the assay with CAKI-1 renal; 17600 nM with COLO 205 colon; 23500 nM with HOP-92 NSCLC; 18.2 µM with A549 NSCLC; 27.3 µM in the assay with RPMI-8226 leukemia. Moreover, the GI50 with OVCAR-4 ovarian is 11200 nM; in the assay on SK-OV-3 ovarian, 19.9 µM; in the assay with PC-3 prostate, 21.9 µM; in the assay on HCC-2998 colon it was 17900 nM. The TGI turned out to be 57.6 µM with SK-MEL-5 melanoma; 40.3 µM in the assay on CAKI-1 renal; 33.4 µM in the assay on COLO 205 colon; 47.7 µM in the assay with HOP-92 NSCLC; 33.7 µM with A549 NSCLC; 72.7 µM in the assay with RPMI-8226 leukemia. Moreover, the TGI with OVCAR-4 ovarian amounted to 28.1 µM; in the assay with SK-OV-3 ovarian it was 39.7 µM; with PC-3 prostate it was 42.6 µM; in the assay on HCC-2998 colon, 33.3 µM.
For `CN(C)CCCOc1ccccc1NC1=C(Cl)C(=O)C(Nc2ccccc2OCCCN(C)C)=C(Cl)C1=O`, the GI50 with SK-MEL-5 melanoma is 1.35 µM; in the assay with CAKI-1 renal it was 1.07 µM; with COLO 205 colon it was 194 nM; with HOP-92 NSCLC, 1330 nM; with A549 NSCLC it was 1.51 µM; in the assay on RPMI-8226 leukemia, 2.01 µM. The GI50 with OVCAR-4 ovarian is 136 nM; in the assay with SK-OV-3 ovarian it was 1.66 µM; in the assay with PC-3 prostate, 0.696 µM; in the assay on HCC-2998 colon it was 604 nM. Besides, the total growth inhibition concentration (TGI) is 2.65 µM in the assay with SK-MEL-5 melanoma; 2.27 µM in the assay on CAKI-1 renal; 0.399 µM in the assay with COLO 205 colon; 2.82 µM in the assay on HOP-92 NSCLC; 2.94 µM in the assay with A549 NSCLC; 5.07 µM in the assay on RPMI-8226 leukemia. The concentration for total growth inhibition (TGI) in the assay with OVCAR-4 ovarian amounted to 0.265 µM; in the assay on SK-OV-3 ovarian, 3.02 µM; in the assay with PC-3 prostate it was 2.19 µM; in the assay on HCC-2998 colon it was 1.31 µM.
